The values that follow come from PubChem BioAssay AID1963831 (Molecular Pharmacology Branch, DTP, NCI, 2024).

pIC50: −log10 of the molar value. Several values for one entry are separate records, joined by “and”; a condition that tells them apart may be missing. Equal values may be shown once.

In the test the test system is 889142-216-R-J1-PDC complex spheroid viability. Briefly: Anticancer human tumor 889142-216-R-J1-PDC patient-derived bladder carcinoma cell line growth inhibition [POLQ]. The following applies: for viability, T/C: stronger effect = lower value. As to the method: Multicellular complex tumor spheroid response to Polymerase (POL) inhibitors (novobiocin, ART-558, RP6685) in combination with a variety of drugs and investigational agents in selected tumor cell lines
The POL inhibitors (novobiocin, ART-558, and RP6685) were evaluated both individually and in combination with standard of care and investigational anticancer small molecules within a complex spheroid model of solid tumors. . Complex spheroids include a stromal component modeled by human endothelial cells (HUVEC) and fibroblasts modeled by human mesenchymal stem cells (MSCs). The concentration ranges selected for each drug and investigational agent were based upon clinically achievable concentrations if the clinical Cmax of the agent was known.
Compounds. The drugs and investigational agents: novobiocin (NSC847541), ART-558 (NSC835418), RP-6685 (NSC848927), peposertib (NSC802822), ceralasertib (NSC780249), elimusertib (NSC800525), camonsertib (NSC841442), AZD-1390 (NSC803789), olaparib (NSC753686), talazoparib (NSC767125), rucaparib (NSC756644), sotorasib (NSC818433), MRTX-1133 (NSC836407), SN-38 (NSC673596), topotecan (NSC609699), epotoside (NSC141540), doxorubicin (NSC123127), gemcitabine (NSC613327), 5-fluorouracil (NSC19893), paclitaxel (NSC125973), vemurafenib (NSC761431), MSA-2 (NSC828583), SN-011 (NSC837082), adavosertib (NSC754352), prexasertib (NSC758257), carboplatin (NSC241240) and oxaliplatin (NSC266046), were obtained from the National Cancer Institute (NCI) Developmental Therapeutics Program Chemical Repository (21). The FDA-approved anticancer drug set is available from the Developmental Therapeutics Program at https://dtp.cancer.gov/organization/dscb/obtaining/. […] The stock solutions were prepared in dimethyl sulfoxide (DMSO, Sigma-Aldrich, St. Louis, MO, cat. D2650), except for the platinum compounds which were prepared in saline (Quality Biological, Gaithersburg, MD, cat. 114-055-101), at 800-fold the tested concentration and stored at -70 degrees C prior to their use. All drugs and investigational agents were tested over a range starting from a high concentration at or near the clinical Cmax and decreasing in half-log increments. If the clinical Cmax for an agent had not been determined, the highest concentration tested was 10 microM, except for SN-38, which was tested at a high concentration of 1 microM.
Cell Culture. All cells were maintained in an incubator at 37 degrees C and 5% CO2 with 95% humidity. The PDC lines were cultured according to standard operating procedures established by the NCI PDMR (https://pdmr.cancer.gov). Table 3 of the manuscript, lists the cell lines along with the number of the three cell types plated to form the mct-spheroids and media for tumor cell growth. After thawing, all PDC lines, except 997537-175-T-J1-PDC and 415267-285-R-J2-PDC, were cultured in Matrigel-coated flasks prepared with a working solution of 1X Ham's F-12 nutrient mix, without supplementation (Thermo Fisher Scientific, cat. 11765054), 100 U/mL penicillin-streptomycin (Thermo Fisher Scientific, cat. 15140122), and 2.5% Matrigel (Corning Inc., Corning, NY, cat. 354248) for the first three passages. The two PDC lines 997537-175-T-J1-PDC and 415267-285-R-J2-PDC were cultured on uncoated flasks. The 857933-349-R-J2-PDC line was cultured in 6C/Colon 1B media containing advanced DMEM/F-12 (Thermo Fisher Scientific, cat. 12634028), 10 mM HEPES (Thermo Fisher Scientific, cat. 15630080), 1X GlutaMAX supplement (Thermo Fisher Scientific, cat. 35050061), 0.1 mg/mL primocin (InvivoGen, San Diego, CA, cat. ant-pm-2), 10% defined fetal bovine serum, heat inactivated (HyClone Laboratories Inc., Logan, UT, cat. SH30070.03HI), 50% L-WRN conditioned media (ATCC, cat. CRL-3276), 1.25 mM N-Acetyl-L-cysteine (Sigma-Aldrich, cat. A9165), 10 mM nicotinamide (Sigma-Aldrich, cat. N0636), 1X B-27 supplement (Thermo Fisher Scientific, cat. 17504044), 1X N-2 supplement (Thermo Fisher Scientific, cat. […]
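Note: spheroids exposed to compounds for seven days.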
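Throughout, for viability, T/C: 100% = DMSO vehicle control viability.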

Regarding `CNCc1ccc(-c2[nH]c3cc(F)cc4c3c2CCNC4=O)cc1`, the viability, T/C by setting is: (compound 0.0316 µM) 113% and 99.8% and 88.3%; (compound 0.1 µM) 91.7% and 96.3% and 114%; (compound 0.316 µM) 86% and 112% and 90.9%; (compound 1 µM) 88% and 96.9% and 104%; (compound 3.16 µM) 87.2% and 83.7% and 97.5%; (compound 10 µM) 76.9% and 70.9% and 70.5%. In addition, the pIC50 (curve of compound) was < 5.00.

For the compound `COC1C(OC(N)=O)C(O)C(Oc2ccc3c(O)c(NC(=O)c4ccc(O)c(CC=C(C)C)c4)c(=O)oc3c2C)OC1(C)C` (stereo not drawn), the viability, T/C is, setting by setting: (compound 0.0316 µM) 109% [middle of 12 runs]; (compound 0.316 µM) 94.6% [middle of 12 runs]. Besides, the negative-log IC50 (pIC50) (compound alone, run of 01/08/2024) was < 5.00.

As to `COc1cc(C2c3cc4c(cc3C(OC3OC5COC(C)OC5C(O)C3O)C3COC(=O)C23)OCO4)cc(OC)c1O` (stereo not drawn), the viability, T/C (compound 0.0316 µM) is 93.9% and 87.6% and 89.9%; the viability, T/C (compound 0.1 µM) is 82.4% and 88.4% and 76.9%; the viability, T/C (compound 0.316 µM) was 77.6% and 73% and 63.3%; the viability, T/C (compound 1 µM) was 58.1% and 80.3% and 53.2%; the viability, T/C (compound 3.16 µM) is 63.4% and 68.3% and 65.3%; the viability, T/C (compound 10 µM) is 54.3% and 62.4% and 58.1%. Further, the pIC50 (curve of compound) is < 5.00.

In the case of `COc1cc2cc(C(=O)CCC(=O)O)sc2cc1OC`, the viability, T/C runs as follows: (compound 0.0316 µM) 105% and 116% and 128%; (compound 0.1 µM) 140% and 92% and 89.7%; (compound 0.316 µM) 89.4% and 92.1% and 94.9%; (compound 1 µM) 115% and 88.4% and 103%; (compound 3.16 µM) 79.9% and 80.8% and 98%; (compound 10 µM) 67.3% and 72.8% and 95.3%. Further, the negative-log IC50 (pIC50) (curve of compound) was < 5.00.

For the compound `COc1ccc([C@@H](O)c2cc(-c3ncnc4cc(N5CCOCC5)ccc34)c(F)cc2Cl)nn1`, the viability, T/C runs as follows: (compound 0.0316 µM) 102% and 95.6% and 99.4%; (compound 0.1 µM) 109% and 88.8% and 107%; (compound 0.316 µM) 71.6% and 95% and 74.9%; (compound 1 µM) 57.8% and 63.2% and 70.5%; (compound 3.16 µM) 54.7% and 51.1% and 55.4%; (compound 10 µM) 38.2% and 43.1% and 35.9%. In addition, the pIC50 (curve of compound) is < 5.00 and 5.59 and 5.41.

Regarding `COc1cccc(OCCCN)c1-c1cc(Nc2cnc(C#N)cn2)n[nH]1`, the viability, T/C (compound 0.00316 µM) was 93.9% and 84.5% and 84.6%; the viability, T/C (compound 0.01 µM) was 53.2% and 89.7% and 71.7%; the viability, T/C (compound 0.0316 µM) is 42.5% and 62.6% and 50.3%; the viability, T/C (compound 0.1 µM) was 34.7% and 51.5% and 47.2%; the viability, T/C (compound 0.316 µM) is 37.9% and 47.7% and 42.3%; the viability, T/C (compound 1 µM) is 34.4% and 42.8% and 40.6%. Also, the pIC50 (curve of compound) is 7.85 and 7.09 and 7.39.

With `COc1cccc2c1C(=O)c1c(O)c3c(c(O)c1C2=O)CC(O)(C(=O)CO)CC3OC1CC(N)C(O)C(C)O1` (stereo not drawn), the viability, T/C is 59.4% and 71.1% and 60.1% (compound 0.0316 µM); 61.1% and 79% and 56.2% (compound 0.1 µM); 46.8% and 46.4% and 36.7% (compound 0.316 µM); 2.75% and 11.6% and 1.69% (compound 1 µM); 0.71% and 1.11% and 0.66% (compound 3.16 µM); 1% and 1.39% and 1.05% (compound 10 µM). Also, the pIC50 (curve of compound) was 6.62 and 6.54 and 6.82.

Turning to `Cn1ncnc1[C@H]1c2n[nH]c(=O)c3cc(F)cc(c23)N[C@@H]1c1ccc(F)cc1`, the viability, T/C runs as follows: (compound 0.000316 µM) 116% and 120% and 92.5%; (compound 0.001 µM) 81.2% and 90.7% and 78%; (compound 0.00316 µM) 84.9% and 99.1% and 83.2%; (compound 0.01 µM) 93.2% and 89.5% and 78.9%; (compound 0.0316 µM) 87.3% and 104% and 84.8%; (compound 0.1 µM) 76.4% and 64.8% and 72.8%. Besides, the negative logarithm of the IC50 (pIC50) (curve of compound) was < 7.00.

Take `Nc1ccn(C2OC(CO)C(O)C2(F)F)c(=O)n1` (stereo not drawn): the viability, T/C by setting is: (compound 0.0316 µM) 62.2% and 68.3% and 56.9%; (compound 0.1 µM) 47% and 40.3% and 54.1%; (compound 0.316 µM) 44.5% and 47.4% and 45%; (compound 1 µM) 44.4% and 48% and 49%; (compound 3.16 µM) 44.2% and 42.1% and 40.3%; (compound 10 µM) 37.1% and 38.8% and 31.7%. The pIC50 (curve of compound) was 7.06 and 7.13 and 6.50.

For `O=C(c1cc(Cc2n[nH]c(=O)c3ccccc23)ccc1F)N1CCN(C(=O)C2CC2)CC1`, the viability, T/C by setting is: (compound 0.0316 µM) 99.2% and 94.9% and 95.6%; (compound 0.1 µM) 83.3% and 99.5% and 98.7%; (compound 0.316 µM) 101% and 83.8% and 88.6%; (compound 1 µM) 81.2% and 111% and 91.4%; (compound 3.16 µM) 83.2% and 97.8% and 72.5%; (compound 10 µM) 60.4% and 69.9% and 69%. The pIC50 (curve of compound) was < 5.00.

As to `O=c1[nH]cc(F)c(=O)[nH]1`, the viability, T/C was 97% and 89.8% and 113% (compound 0.0316 µM); 93.8% and 95.1% and 88.7% (compound 0.1 µM); 106% and 83.7% and 94.8% (compound 0.316 µM); 94.5% and 79.1% and 72.9% (compound 1 µM); 76.2% and 61.7% and 80.9% (compound 3.16 µM); 67.3% and 59.5% and 77.3% (compound 10 µM). The negative-log IC50 (pIC50) (curve of compound) is < 5.00.
